Results from paper PMC9358669, “Native metabolomics identifies the rivulariapeptolide family of protease inhibitors” (Nature Communications, 2022).
pIC50: −log10 of the molar value. Like-named read-outs stand apart in the source and are kept apart here. Starred links: 1 amine or outer side, 2 acyl side, 3 side chain; linkers in the order of their positions; H or OH if unused. Positions of bridges follow the written chain, without caps; N, C: chain ends. Non-standard residues stand in square brackets, D forms with d. Residues, ends and D or L forms follow the SMILES beside them. *: point of attachment. Ahp(3S,6R)alloIle = CC[C@@H](C)[C@@H](C(=O)[*:2])N1C(=O)[C@@H](N[*:1])CC[C@H]1O; Propanoyl(2R-OH,3-(4-HOPh)) = O=C([C@H](O)Cc1ccc(O)cc1)*; Propanoyl(2R-OMe,3-OSO3H) = CO[C@H](COS(=O)(=O)O)C(=O)*; NMeTyr(3-Br,OMe) = CN[C@@H](Cc1ccc(OC)c(Br)c1)C(=O)O; NMeF = CN[C@@H](Cc1ccccc1)C(=O)O

Key:
[1] = test system: Chymotrypsin; set-up: method as in earlier work; details: Supplementary Table 5, Top 50 chymotrypsin inhibitors among Ahp-cyclodepsipeptides; cited from earlier work
[2] = molecular target: T1, Chymotrypsin (Bos taurus, UniProt P00766); test: Chymotrypsin inhibition, fluorogenic substrate assay (Suc-Ala-Ala-Pro-Phe-AMC); format: biochemical; details: for Mean (RFU/s): Chymotrypsin
T1 construct: purchased Sigma-Aldrich

[3] = molecular target: T2, Proteinase K (Parengyodontium album, UniProt P06873); test: Proteinase K inhibition, fluorogenic substrate assay (Suc-Ala-Ala-Pro-Phe-AMC); format: biochemical, Tritirachium album; details: 40 min pre-incubation; for Mean (RFU/s): Proteinase K
T2 construct: purchased Roche

[4] = molecular target: T3, Elastase (Sus scrofa, UniProt P00772); test: Elastase inhibition, fluorogenic substrate assay (MeOSuc-Ala-Ala-Pro-Val-AMC); format: biochemical, Sus domesticus; details: for Mean (RFU/s): Elastase
T3 construct: purchased Sigma-Aldrich

[5] = inhibitor concentration 0.0508053 nM, 40 min pre-incubation
[6] = inhibitor concentration 0.152416 nM, 40 min pre-incubation
[7] = inhibitor concentration 0.457247 nM, 40 min pre-incubation
[8] = inhibitor concentration 1.37174 nM, 40 min pre-incubation
[9] = inhibitor concentration 4.11523 nM, 40 min pre-incubation
[10] = inhibitor concentration 12.3457 nM, 40 min pre-incubation
[11] = inhibitor concentration 37.037 nM, 40 min pre-incubation
[12] = inhibitor concentration 111.111 nM, 40 min pre-incubation
[13] = inhibitor concentration 333.333 nM, 40 min pre-incubation
[14] = inhibitor concentration 1000 nM, 40 min pre-incubation
[15] = inhibitor concentration 3000 nM, 40 min pre-incubation
[16] = replacement of Abu (compound 2) for Leu (1)

T3 sequence (P00772 27-266): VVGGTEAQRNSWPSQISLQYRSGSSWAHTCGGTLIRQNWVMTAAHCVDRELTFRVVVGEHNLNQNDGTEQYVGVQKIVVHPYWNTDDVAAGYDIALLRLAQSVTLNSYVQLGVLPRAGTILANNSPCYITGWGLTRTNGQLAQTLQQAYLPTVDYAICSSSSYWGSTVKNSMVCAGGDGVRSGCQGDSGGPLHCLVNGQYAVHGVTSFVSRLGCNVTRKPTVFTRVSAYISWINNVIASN
T2 sequence (P06873 106-384): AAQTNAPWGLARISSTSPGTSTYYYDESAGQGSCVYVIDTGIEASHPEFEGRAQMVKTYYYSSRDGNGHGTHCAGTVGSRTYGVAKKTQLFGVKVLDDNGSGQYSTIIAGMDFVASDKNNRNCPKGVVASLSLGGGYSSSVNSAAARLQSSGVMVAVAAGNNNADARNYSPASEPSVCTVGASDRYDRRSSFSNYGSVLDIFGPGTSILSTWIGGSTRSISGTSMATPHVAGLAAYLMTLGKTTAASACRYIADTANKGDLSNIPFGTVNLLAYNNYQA

C/C=C1\NC(=O)[C@@H](NC(=O)[C@@H](NC(=O)[C@H](C)NC(=O)CCC)C(C)C)[C@@H](C)OC(=O)[C@H](C(C)C)NC(=O)[C@H](Cc2ccc(O)cc2)N(C)C(=O)[C@H](Cc2ccccc2)N2C(=O)[C@H](CC[C@H]2O)NC1=O [Bouillomide A]
pIC50 [1]: 6.77

CCC(=O)N[C@@H](CCC(N)=O)C(=O)N[C@@H]1C(=O)N[C@@H](CC(C)C)C(=O)N[C@H]2CC[C@@H](O)N(C2=O)[C@@H](Cc2ccccc2)C(=O)N(C)[C@@H](Cc2ccc(O)cc2)C(=O)N[C@@H](C(C)C)C(=O)O[C@@H]1C [Crocapeptin A1]
pIC50 [1]: 7.00

CC(C)C[C@@H]1NC(=O)[C@@H](NC(=O)[C@H](CCC(N)=O)NC(=O)C(C)C)[C@@H](C)OC(=O)[C@H](C(C)C)NC(=O)C(Cc2ccc(O)cc2)N(C)C(=O)[C@H](Cc2ccccc2)N2C(=O)[C@H](CC[C@H]2O)NC1=O (some centres unmarked) [Crocapeptin A2]
pIC50 [1]: 7.00

CCC(C)C(=O)N[C@@H](CCC(N)=O)C(=O)N[C@@H]1C(=O)N[C@@H](CC(C)C)C(=O)N[C@H]2CC[C@@H](O)N(C2=O)[C@@H](Cc2ccccc2)C(=O)N(C)[C@@H](Cc2ccc(O)cc2)C(=O)N[C@@H](C(C)C)C(=O)O[C@@H]1C (some centres unmarked) [Crocapeptin A3]
pIC50 [1]: 7.00

CCCCCC(=O)N[C@@H](CC(=O)O)C(=O)N[C@@H]1C(=O)N[C@@H](Cc2ccc(O)cc2)C(=O)N[C@H]2CC[C@@H](O)N(C2=O)[C@@H](CC(C)C)C(=O)N(C)[C@@H](Cc2ccccc2)C(=O)N[C@@H](C(C)C)C(=O)O[C@@H]1C [Cyanopeptolin 963A]
pIC50 [1]: 6.05

CCCCCC(=O)NC(CC(=O)O)C(=O)NC1C(=O)NC(Cc2ccc(O)cc2)C(=O)NC2CCC(O)N(C2=O)C(Cc2ccccc2)C(=O)N(C)C(CCc2ccc(O)cc2)C(=O)NC(C(C)C)C(=O)OC1C (centres unmarked) [Cyanopeptolin CP1027]
pIC50 [1]: 6.59

CC[C@@H](C)[C@H]1C(=O)N(C)[C@@H](Cc2ccc(OC)c(Br)c2)C(=O)N[C@@H]([C@@H](C)CC)C(=O)O[C@H](C)[C@H](NC(=O)[C@@H](NC(=O)[C@@H](COS(=O)(=O)O)OC)C(C)C)C(=O)N[C@@H](CCCCN)C(=O)N[C@H]2CC[C@@H](O)N1C2=O [Jizanpeptin C] ({Propanoyl(2R-OMe,3-OSO3H)}-VTK[Ahp(3S,6R)alloIle][NMeTyr(3-Br,OMe)]I; ester 2-C)
pIC50 [1]: 5.85

CC(C)C[C@@H]1NC(=O)[C@@H](NC(=O)[C@@H](NC(=O)[C@H](C)NC(=O)[C@H](CCCc2ccc(O)cc2)NC(=O)[C@H](O)CO)C(C)C)[C@@H](C)OC(=O)[C@H](C(C)C)NC(=O)[C@H](Cc2ccc(O)c(Br)c2)N(C)C(=O)[C@@H]2[C@H](C)O[C@@H]3CC[C@H](NC1=O)C(=O)N23 [Largamide D oxazolidine]
pIC50 [1]: 6.03

CCCCCC(=O)NCC(=O)N[C@H](C(=O)N[C@@H]1C(=O)N[C@@H](CCC(N)=O)C(=O)N[C@H]2CC[C@@H](O)N(C2=O)[C@@H](Cc2ccccc2)C(=O)N(C)[C@@H](Cc2c[nH]c3ccccc23)C(=O)N[C@@H](C(C)C)C(=O)O[C@@H]1C)[C@@H](C)O [Micropeptin 103]
pIC50 [1]: 6.00

CCCCCC(=O)N[C@@H](CCC(=O)O)C(=O)N[C@@H]1C(=O)N[C@@H](Cc2ccc(O)cc2)C(=O)N[C@H]2CC[C@@H](O)N(C2=O)[C@@H](Cc2ccccc2)C(=O)N(C)[C@@H](Cc2ccc(O)cc2)C(=O)N[C@@H](C(C)C)C(=O)O[C@@H]1C [Micropeptin C]
pIC50 [1]: 5.96

CC[C@@H](C)[C@H]1NC(=O)[C@@H](Cc2ccccc2)N(C)C(=O)[C@@H](CC(C)C)N2C(=O)[C@@H](CC[C@@H]2O)NC(=O)[C@@H](Cc2ccc(O)cc2)NC(=O)[C@H](NC(=O)[C@H](CCC(N)=O)NC(=O)[C@H](O)Cc2ccc(O)cc2)[C@@H](C)OC1=O [Micropeptin DR1056]
pIC50 [1]: 5.80

CCCCCCCC(=O)N[C@@H](CCC(=O)O)C(=O)N[C@@H]1C(=O)N[C@@H](Cc2ccc(O)cc2)C(=O)N[C@H]2CC[C@@H](O)N(C2=O)[C@@H](Cc2ccccc2)C(=O)N(C)[C@@H](Cc2ccc(O)cc2)C(=O)N[C@@H](C(C)C)C(=O)O[C@@H]1C [Micropeptin D]
pIC50 [1]: 5.92

CCCCCC(=O)N[C@@H](CCC(=O)O)C(=O)N[C@@H]1C(=O)N[C@@H](Cc2ccc(O)cc2)C(=O)N[C@H]2CC[C@@H](O)N(C2=O)[C@@H](CC(C)C)C(=O)N(C)[C@@H](Cc2ccc(O)cc2)C(=O)N[C@@H](C(C)C)C(=O)O[C@@H]1C [Micropeptin E]
pIC50 [1]: 6.00

CCCCCCCC(=O)N[C@@H](CCC(=O)O)C(=O)N[C@@H]1C(=O)N[C@@H](Cc2ccc(O)cc2)C(=O)N[C@H]2CC[C@@H](O)N(C2=O)[C@@H](CC(C)C)C(=O)N(C)[C@@H](Cc2ccc(O)cc2)C(=O)N[C@@H](C(C)C)C(=O)O[C@@H]1C [Micropeptin F]
pIC50 [1]: 5.82

CC[C@H](C)[C@@H]1NC(=O)[C@H](Cc2ccccc2)N(C)C(=O)[C@H](C(C)C)N2C(=O)[C@H](CC[C@H]2O)NC(=O)[C@H](CC2C=CC(O)CC2)NC(=O)[C@@H](NC(=O)[C@@H](CCC(N)=O)NC(=O)C(O)Cc2ccc(O)cc2)[C@H](C)OC1=O (some centres unmarked) [Micropeptin KB1046]
pIC50 [1]: 6.66

CC[C@@H](C)[C@H]1C(=O)N(C)[C@@H](Cc2ccccc2)C(=O)N[C@@H](C(C)C)C(=O)O[C@H](C)[C@H](NC(=O)[C@H](CCC(N)=O)NC(=O)[C@H](O)Cc2ccc(O)cc2)C(=O)N[C@@H](Cc2ccc(O)cc2)C(=O)N[C@H]2CC[C@@H](O)N1C2=O [Micropeptin KT1042] ({Propanoyl(2R-OH,3-(4-HOPh))}-QTY[Ahp(3S,6R)alloIle][NMeF]V; ester 2-C)
pIC50 [1]: 6.59

CCCCCC(=O)NCC(=O)N[C@H](C(=O)N[C@@H]1C(=O)N[C@@H](CCC(N)=O)C(=O)N[C@H]2CC[C@@H](O)N(C2=O)[C@@H](Cc2ccccc2)C(=O)N(C)[C@@H](Cc2ccc(O)cc2)C(=O)N[C@@H](C(C)C)C(=O)O[C@@H]1C)[C@@H](C)O [Micropeptin LH1021]
pIC50 [1]: 5.96

CC[C@H](C)[C@@H]1NC(=O)[C@H](Cc2ccccc2)N(C)C(=O)[C@H](Cc2ccccc2)N2C(=O)[C@H](CC[C@H]2O)NC(=O)[C@H](CC(C)C)NC(=O)[C@@H](NC(=O)[C@H](O)CO)[C@@H](C)OC1=O [Micropeptin MM836]
pIC50 [1]: 5.85

CC[C@H](C)[C@@H]1NC(=O)[C@H](Cc2ccc(O)cc2)N(C)C(=O)[C@H]([C@@H](C)CC)N2C(=O)C(CCC2O)NC(=O)[C@H](CC(C)C)NC(=O)[C@@H]2C(OC1=O)C(C)CN2C(=O)[C@H](CCC(N)=O)NC(C)=O (some centres unmarked) [Nostopeptin B]
pIC50 [1]: 5.80

CC[C@H](C)[C@@H]1NC(=O)[C@H](Cc2ccc(OC)cc2)N(C)C(=O)[C@H]([C@@H](C)O)N2C(=O)[C@H](CC[C@H]2O)NC(=O)[C@H](CC(C)C)NC(=O)[C@@H](NC(=O)[C@H](CCC(N)=O)NC(=O)[C@H](CCc2ccc(O)cc2)NC(=O)[C@@H](O)CO)[C@@H](C)OC1=O [Planktopeptin BL1125]
pIC50 [1]: 6.10

CCCC(=O)N1CCCC1C(=O)NC(C(=O)NC1C(=O)NC(CC(C)C)C(=O)NC2CCC(O)N(C2=O)C(Cc2ccccc2)C(=O)N(C)C(Cc2ccc(O)cc2)C(=O)NC(C(C)C)C(=O)OC1C)C(C)OC(=O)C1CCCN1C(=O)CCC (centres unmarked) [Rivulariapeptolide 1185, rivulariapeptolide 1185]
pIC50 ([2]; 40 min pre-incubation, mean, n = 3, read-out: IC50 Chymotrypsin): 7.88
Mean (RFU/s) [2, 5]: 5.046 RFU/s
Mean (RFU/s) [2, 6]: 5.119 RFU/s
Mean (RFU/s) [2, 7]: 5.025 RFU/s
Mean (RFU/s) [2, 8]: 5.024 RFU/s
Mean (RFU/s) [2, 9]: 4.153 RFU/s
Mean (RFU/s) [2, 10]: 2.685 RFU/s
Mean (RFU/s) [2, 11]: 1.084 RFU/s
Mean (RFU/s) [2, 12]: 0.416 RFU/s
Mean (RFU/s) [2, 13]: 0.1823 RFU/s
Mean (RFU/s) [2, 14]: 0 RFU/s
Mean (RFU/s) [2, 15]: 0 RFU/s
pIC50 ([2]; Supplementary Table 5, compounds of this study, read-out: Chymotrypsin IC50): 7.88
increase in potency towards chymotrypsin [2, 16]: more than threefold
pIC50 ([3]; mean, n = 3): 7.26
Mean (RFU/s) ([3]; inhibitor concentration 0.0508053 nM): 6.418 RFU/s
Mean (RFU/s) ([3]; inhibitor concentration 0.152416 nM): 6.488 RFU/s
Mean (RFU/s) ([3]; inhibitor concentration 0.457247 nM): 6.316 RFU/s
Mean (RFU/s) ([3]; inhibitor concentration 1.37174 nM): 6.389 RFU/s
Mean (RFU/s) ([3]; inhibitor concentration 4.11523 nM): 6.178 RFU/s
Mean (RFU/s) ([3]; inhibitor concentration 12.3457 nM): 5.621 RFU/s
Mean (RFU/s) ([3]; inhibitor concentration 37.037 nM): 4.195 RFU/s
Mean (RFU/s) ([3]; inhibitor concentration 111.111 nM): 1.657 RFU/s
Mean (RFU/s) ([3]; inhibitor concentration 333.333 nM): 0.4863 RFU/s
Mean (RFU/s) ([3]; inhibitor concentration 1000 nM): 0.13 RFU/s
Mean (RFU/s) ([3]; inhibitor concentration 3000 nM): 0.04267 RFU/s
pIC50 ([4]; 40 min pre-incubation, mean, n = 3): 7.63
Mean (RFU/s) [4, 5]: 0.9257 RFU/s
Mean (RFU/s) [4, 6]: 0.9033 RFU/s
Mean (RFU/s) [4, 7]: 0.876 RFU/s
Mean (RFU/s) [4, 8]: 0.8487 RFU/s
Mean (RFU/s) [4, 9]: 0.7693 RFU/s
Mean (RFU/s) [4, 10]: 0.589 RFU/s
Mean (RFU/s) [4, 11]: 0.369 RFU/s
Mean (RFU/s) [4, 12]: 0.07933 RFU/s
Mean (RFU/s) [4, 13]: 0.02233 RFU/s
Mean (RFU/s) [4, 14]: 0 RFU/s
Mean (RFU/s) [4, 15]: 0 RFU/s
decrease in potency towards elastase [4, 16]: fivefold
